The values that follow come from paper PMC4277420, “Assessment of [^125I]WYE-230949 as a Novel Histamine H3 Receptor Radiopharmaceutical” (PLoS ONE, 2014).

Data set [1] addresses rat histamine H3 receptors. Also noted: method as in earlier work. The conditions noted are these: rat histamine H3 receptor; cited from earlier work.
Data set [2] concerns the target human histamine H3 receptors. Details: method as in earlier work. The conditions noted are these: human histamine H3 receptor; cited from earlier work.
The conditions of data set [3]: cited from earlier work.
Details of data set [4]: method as in PMID 19910432. The conditions noted are these: porcine brain, 20 min post injection; cited from earlier work.
For data set [5] the following is noted: cited from earlier work. This is another data set of the same source.
On the set-up of data set [6]: method as in PMID 16934699. The conditions noted are these: rats, 5 min post injection; cited from earlier work.
Details of data set [7]: method as in PMID 16934699, PMID 17998102. The note with it: cited from earlier work.
For data set [8], the target named is T1, rat histamine H3 receptor (Rattus norvegicus, UniProt Q9QYN8).
T1 construct: from tissue; host or cells: whole brain of male Sprague-Dawley rats, homogenate pellet
T1 sequence (Q9QYN8 whole entry): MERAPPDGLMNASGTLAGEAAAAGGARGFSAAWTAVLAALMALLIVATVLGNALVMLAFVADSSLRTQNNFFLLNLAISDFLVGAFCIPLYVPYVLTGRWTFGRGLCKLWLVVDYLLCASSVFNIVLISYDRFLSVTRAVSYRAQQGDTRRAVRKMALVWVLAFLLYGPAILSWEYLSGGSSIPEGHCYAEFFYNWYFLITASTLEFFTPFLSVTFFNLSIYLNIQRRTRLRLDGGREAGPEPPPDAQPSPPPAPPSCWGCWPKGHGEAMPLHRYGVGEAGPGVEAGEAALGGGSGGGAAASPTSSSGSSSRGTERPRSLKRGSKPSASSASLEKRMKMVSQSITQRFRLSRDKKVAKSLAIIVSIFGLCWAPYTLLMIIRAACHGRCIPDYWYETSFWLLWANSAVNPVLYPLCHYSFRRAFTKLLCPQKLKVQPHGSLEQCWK
The conditions noted are these: rat striatum; cited from earlier work.

For data set [9] the following is noted: cited from earlier work. The source holds these as a separate data set.
The target of data set [10] is T1, rat histamine H3 receptor. Description: In vitro saturation radioligand binding to rat brain homogenates. The note with it: whole rat brain homogenates, one-site binding model, n = 8. The protocol: Animals (male Sprague-Dawley rats; Harlan, UK) were killed by cervical dislocation. Whole brains were immediately excised and placed into ice-cold Tris-HCl buffer (Tris […], pH 7.4; EDTA 5 mM), homogenised and centrifuged at approx 40,000 g for 10 min at 4°C (Beckman J2-21M/E). The pellet was resuspended in 25 ml of buffer and centrifuged as previously, then the final pellet was resuspended in 10 ml of ice cold Tris buffer and stored at −50°C until required. Protein content was analysed using Bio-Rad reagent; absorbance was read on a spectrophotometer at 562 nm. [^125I]WYE230949 binding assays were carried out in a final incubation volume of 500 µl containing Tris-HCl buffer (Tris […], pH 7.4; EDTA 5 mM), brain homogenates (1.47 to 2.27 mg/ml of protein) and [^125I]WYE230949 (0.04–102 nM). Non-specific binding was defined in the presence of 10 µM iodophenpropit. Samples were incubated at 30°C for 30 min, then filtered rapidly through Whatman GF/B filters (pre-treated with 0.3% polyethylenimine; Aldrich, UK) using a Brandel M24R cell harvester and the filters washed with 3×4 ml ice-cold Tris buffer. Radioactivity on the filters was determined by liquid scintillation counting a minimum of 48 h after filtration. All assays were performed in triplicate. Specific binding was determined by subtracting non-specific binding from total binding at each concentration; Kd and Bmax values derived using GraphPad Prism (version 4.03), and expressed as mean ±SEM of the triplicate assays.

Each structure is given as a SMILES string. Like-named read-outs stand apart in the source and are kept apart here.

`O=C(c1ccc(Cn2cnc3cccc(I)c32)cc1)N1CC[C@H](N2CCCC2)C1` [WYE-230949]: the Ki – broadly, the equilibrium dissociation constant of an inhibitor or competing ligand from its target – in [1] is 5.7 nM; in [2], 0.3 nM.
As to `[11CH3]NC(=O)c1ccc(Oc2ccc3c(c2)CCN(C2CCC2)CC3)nc1` [[^11C]GSK189254], the pH-dependent lipophilicity (LogD) – broadly, lipophilicity at a set pH, counting ionised and neutral species – in data set [3] is listed as 1.7. Also, in data set [4], the brain uptake is on record as 9.0 %ID/L. For the same compound, the results for the “parent remaining in plasma” value in data set [5] (30 minutes post injection) and in data set [5] (after 90 min) were 58% and 55%, respectively.
For the compound `C(#Cc1cccc([11CH2]N2CCOCC2)c1)CCN1CCCCC1` [[^11C]JNJ-10181457, 4-[3-(4-piperidin-1-yl-but-1-ynyl)-[^11C]benzyl]-morpholine], the brain uptake in data set [6] was 1.38 %ID/g. Further, the “parent remaining in the brain” value in [7] (30 min post injection) is listed as “greater than 80%”.
As to `[18F]c1ccc(COCCCc2cnc[nH]2)cc1` [[^18F]fluoroproxyfan], the “parent remaining in the brain” value is 94% in [7] (30 min post injection) and 68% in [7] (120 min post injection). The “parent remaining in plasma” value in data set [5] (30 minutes post injection) is 43%.
Consider `[123I]c1ccc(COCCCc2cnc[nH]2)cc1` [[^123I]iodoproxyfan], for which, in data set [8], the Bmax is reported as 78 fmol/mg of protein. For the same compound, in data set [9], the peak brain uptake is given as ~1.5 %ID/g.
On to `O=C(c1ccc(Cn2cnc3cccc(I)c32)cc1)N1CC[C@H](N2CCCC2)C1` [[^125I]WYE-230949], for which, in data set [10], the Kd (commonly a measure of binding affinity in units of concentration) was determined as 6.9 nM.
